In brackets after ≈: the same amount, converted by molar mass.

Test system in one series: not listed separately
Kind of series: Solubility in PG/EtOH (96%) at 30 mg/mL after 24 hrs by UV-spectrometric method. The note with it: PG/EtOH (96%). The series is classed as physicochemical.
The molecule `CC(C)C(CCCCC(=O)NO)Nc1c(Nc2ccc(C(F)(F)F)cc2)c(=O)c1=O` (racemic) yielded a solubility at 24 h of 6.3 mM (≈ 2690 µg/mL).
`O=C(CCCCCNc1c(NC2CCCCC2)c(=O)c1=O)NO` returned a solubility at 24 h of 8.7 mM (≈ 2810 µg/mL).
Same read-out and setting: next, `O=C(CCCCCNc1c(Nc2ccc(C(F)(F)F)cc2)c(=O)c1=O)NO`: 4.7 mM (≈ 1810 µg/mL); `O=C(CCCCCNc1c(NCc2ccccc2)c(=O)c1=O)NO`: 5.7 mM (≈ 1890 µg/mL); `Cc1cccc(Nc2c(NCCCCCC(=O)NO)c(=O)c2=O)c1`: 11 mM (≈ 3650 µg/mL).
With `O=C(CCCCC(Cc1ccccc1)Nc1c(Nc2ccc(C(F)(F)F)cc2)c(=O)c1=O)NO` (racemic), the concentration in solution (solubility at 24 h) was 5.7 mM (≈ 2710 µg/mL).
Take `Cc1cccc([C@@H](C)Nc2c(NCCCCCC(=O)NO)c(=O)c2=O)c1`: the solubility at 24 h came to 82 mM (≈ 29500 µg/mL).
As for `Cc1ccccc1Nc1c(NCCCCCC(=O)NO)c(=O)c1=O`, the solubility at 24 h was 12 mM (≈ 3980 µg/mL).
With `Cc1ccc([C@H](C)Nc2c(NCCCCCC(=O)NO)c(=O)c2=O)cc1`, the concentration in solution (solubility at 24 h) came to 5.6 mM (≈ 2010 µg/mL).
On the same count and under the same terms, next, `Cc1ccccc1[C@H](C)Nc1c(NCCCCCC(=O)NO)c(=O)c1=O`: 47 mM (≈ 16900 µg/mL).

Test system in another series: not listed separately
Kind of series: Clearance in human hepatocytes assessed per million cells at 1 uM after 5 to 90 mins by LC-MS/MS analysis. The note with it: read-out: CLH. It is filed as ADME, cell-based, Hepatocyte.
Consider `CC(C)C(CCCCC(=O)NO)Nc1c(Nc2ccc(C(F)(F)F)cc2)c(=O)c1=O` (racemic), for which the hepatocyte CLint at 1 µM worked out at 27 µL/min/1e6 cells.
The same measure, in the same setting: next, `O=C(CCCCCNc1c(NC2CCCCC2)c(=O)c1=O)NO`: under 5 µL/min/1e6 cells.
Still for that read-out and setting: under `O=C(CCCCCNc1c(Nc2ccc(C(F)(F)F)cc2)c(=O)c1=O)NO` stands 11 µL/min/1e6 cells; under `O=C(CCCCCNc1c(NCc2ccccc2)c(=O)c1=O)NO`, under 4.8 µL/min/1e6 cells.
Regarding `Cc1cccc(Nc2c(NCCCCCC(=O)NO)c(=O)c2=O)c1`, the hepatocyte CLint at 1 µM was determined as 18 µL/min/1e6 cells.
Same read-out and setting: next, `O=C(CCCCC(Cc1ccccc1)Nc1c(Nc2ccc(C(F)(F)F)cc2)c(=O)c1=O)NO` (racemic): 6.6 µL/min/1e6 cells; `Cc1cccc([C@@H](C)Nc2c(NCCCCCC(=O)NO)c(=O)c2=O)c1`: under 5 µL/min/1e6 cells; `Cc1ccccc1Nc1c(NCCCCCC(=O)NO)c(=O)c1=O`: under 5 µL/min/1e6 cells.
As for `Cc1ccc([C@H](C)Nc2c(NCCCCCC(=O)NO)c(=O)c2=O)cc1`, the hepatocyte CLint at 1 µM is under 5 µL/min/1e6 cells.
The same measure, in the same setting: under `Cc1ccccc1[C@H](C)Nc1c(NCCCCCC(=O)NO)c(=O)c1=O` stands under 5 µL/min/1e6 cells.

Test system in the next series: not listed separately
The series is described as follows: Solubility in pH 7.4 phosphate buffer solution at 100 uM after 24 hrs by HPLC method. The series is classed as physicochemical. The note with it: buffer, pH 7.4, 24 h, 100 µM.
On to `O=C(CCCCC(Cc1ccccc1)Nc1c(Nc2ccc(C(F)(F)F)cc2)c(=O)c1=O)NO` (racemic), for which the solubility is under 1000 nM.

Still in this series, the particulars now being: phosphate buffer, pH 7.4.
Molecule `CC(C)C(CCCCC(=O)NO)Nc1c(Nc2ccc(C(F)(F)F)cc2)c(=O)c1=O` (racemic) gave a solubility at 24 h, 100 µM of 5.3 µM (≈ 2.27 µg/mL).
The same measure, in the same setting: next, `O=C(CCCCCNc1c(NC2CCCCC2)c(=O)c1=O)NO`: 91 µM (≈ 29.4 µg/mL); `O=C(CCCCCNc1c(Nc2ccc(C(F)(F)F)cc2)c(=O)c1=O)NO`: 4.5 µM (≈ 1.73 µg/mL).
Turning to `O=C(CCCCCNc1c(NCc2ccccc2)c(=O)c1=O)NO`, the solubility at 24 h, 100 µM turned out to be 75 µM (≈ 24.9 µg/mL).
Consider `Cc1cccc(Nc2c(NCCCCCC(=O)NO)c(=O)c2=O)c1`, for which the solubility at 24 h, 100 µM was 79 µM (≈ 26.2 µg/mL).
Still for that read-out and setting: next, `Cc1cccc([C@@H](C)Nc2c(NCCCCCC(=O)NO)c(=O)c2=O)c1`: 89 µM (≈ 32 µg/mL).
`Cc1ccccc1Nc1c(NCCCCCC(=O)NO)c(=O)c1=O` had a solubility at 24 h, 100 µM of 89 µM (≈ 29.5 µg/mL).
Still for that read-out and setting: next, `Cc1ccc([C@H](C)Nc2c(NCCCCCC(=O)NO)c(=O)c2=O)cc1`: 76 µM (≈ 27.3 µg/mL).
Consider `Cc1ccccc1[C@H](C)Nc1c(NCCCCCC(=O)NO)c(=O)c1=O`, for which the solubility at 24 h, 100 µM was determined as 92 µM (≈ 33.1 µg/mL).

Another series concerns HuT78. Kind of series: Pro-apoptotic activity in human HUT78 cells after 18 hrs by caspase-Glo 3/7 assay. It is filed as functional, cell-based. Conditions: HuT78, 18 h.
For the molecule `CC(C)C(CCCCC(=O)NO)Nc1c(Nc2ccc(C(F)(F)F)cc2)c(=O)c1=O` (racemic), the 50% effective concentration (EC50) came out at 280 nM.
`O=C(CCCCCNc1c(NC2CCCCC2)c(=O)c1=O)NO` showed an EC50 of 84 nM.
Regarding `O=C(CCCCCNc1c(Nc2ccc(C(F)(F)F)cc2)c(=O)c1=O)NO`, the EC50 turned out to be 4 nM.
The same measure, in the same setting: under `O=C(CCCCCNc1c(NCc2ccccc2)c(=O)c1=O)NO` stands 270 nM.
As for `Cc1cccc(Nc2c(NCCCCCC(=O)NO)c(=O)c2=O)c1`, the EC50 was 26 nM.
Still for that read-out and setting: next, `O=C(CCCCC(Cc1ccccc1)Nc1c(Nc2ccc(C(F)(F)F)cc2)c(=O)c1=O)NO` (racemic): 38 nM; `Cc1cccc([C@@H](C)Nc2c(NCCCCCC(=O)NO)c(=O)c2=O)c1`: 160 nM.
On the same count and under the same terms, next, `Cc1ccccc1Nc1c(NCCCCCC(=O)NO)c(=O)c1=O`: 280 nM.
On the same count and under the same terms, next, `Cc1ccc([C@H](C)Nc2c(NCCCCCC(=O)NO)c(=O)c2=O)cc1`: 130 nM.
`Cc1ccccc1[C@H](C)Nc1c(NCCCCCC(=O)NO)c(=O)c1=O`: the EC50 stood at 560 nM.

In the next series the target is Histone deacetylase 1 (Homo sapiens, UniProt Q13547). The series is described as follows: Inhibition of human recombinant HDAC1 using Fluor de Lys as substrate after 2 hrs by fluorescence method.
Chain of Histone deacetylase 1 (Q13547 whole entry): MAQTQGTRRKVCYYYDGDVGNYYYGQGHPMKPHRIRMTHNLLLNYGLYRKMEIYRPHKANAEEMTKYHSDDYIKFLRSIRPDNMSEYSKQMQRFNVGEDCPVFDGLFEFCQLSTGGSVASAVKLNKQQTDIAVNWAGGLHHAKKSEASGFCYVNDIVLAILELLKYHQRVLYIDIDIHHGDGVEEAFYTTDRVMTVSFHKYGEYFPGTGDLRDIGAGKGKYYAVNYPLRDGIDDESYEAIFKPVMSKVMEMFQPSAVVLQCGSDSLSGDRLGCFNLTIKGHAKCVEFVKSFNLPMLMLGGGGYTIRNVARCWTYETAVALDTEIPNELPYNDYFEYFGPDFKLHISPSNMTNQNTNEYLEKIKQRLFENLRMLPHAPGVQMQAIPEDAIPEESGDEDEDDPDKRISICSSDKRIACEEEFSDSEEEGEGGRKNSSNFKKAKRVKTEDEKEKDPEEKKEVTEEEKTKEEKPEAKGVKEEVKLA
Conditions: not given
In the case of `CC(C)C(CCCCC(=O)NO)Nc1c(Nc2ccc(C(F)(F)F)cc2)c(=O)c1=O` (racemic), the Ki worked out at 12 nM.
In the case of `O=C(CCCCCNc1c(NC2CCCCC2)c(=O)c1=O)NO`, the inhibition constant (Ki) was found to be 1.4 nM.
Same read-out and setting: under `O=C(CCCCCNc1c(Nc2ccc(C(F)(F)F)cc2)c(=O)c1=O)NO` stands 0.23 nM.
The same measure, in the same setting: next, `O=C(CCCCCNc1c(NCc2ccccc2)c(=O)c1=O)NO`: 7.3 nM.
In the case of `Cc1cccc(Nc2c(NCCCCCC(=O)NO)c(=O)c2=O)c1`, the inhibition constant (Ki) worked out at 0.39 nM.
Same read-out and setting: under `O=C(CCCCC(Cc1ccccc1)Nc1c(Nc2ccc(C(F)(F)F)cc2)c(=O)c1=O)NO` (racemic) stands 1.9 nM; under `Cc1cccc([C@@H](C)Nc2c(NCCCCCC(=O)NO)c(=O)c2=O)c1`, 11 nM.
The same measure, in the same setting: under `Cc1ccccc1Nc1c(NCCCCCC(=O)NO)c(=O)c1=O` stands 4.4 nM.
Still for that read-out and setting: next, `Cc1ccc([C@H](C)Nc2c(NCCCCCC(=O)NO)c(=O)c2=O)cc1`: 2.3 nM; `Cc1ccccc1[C@H](C)Nc1c(NCCCCCC(=O)NO)c(=O)c1=O`: 2.3 nM.

For the origin of these results see ChEMBL document CHEMBL4229543, “Squaramides as novel class I and IIB histone deacetylase inhibitors for topical treatment of cutaneous t-cell lymphoma” (Bioorg Med Chem Lett, 2018).
